Experimental data: US20120101032A1, “NOVEL MACROCYCLIC INHIBITORS OF HEPATITIS C VIRUS REPLICATION” (priority 2010, published 2012)
Read-outs that look alike come from different tables or passages of the source.

Legend:
[1] = system: hepatitis C replicon; assay: hepatitis C replicon EC50 assay; assay type: cell-based; conditions: Hepatitis C virus
From the text: NS3-NS4 inhibition activity can be determined using known assay methods.

[2] = target: NS3/NS4 complexes (Hepatitis C virus genotype 1a, UniProt P27958); assay: biochemical; conditions: NS3-NS4 activity; 23° C., pH 7.5, 25 μM NS4A peptide; read-out: IC50
Chain of NS3/NS4 complexes (P27958 1027-1657, one chain of several): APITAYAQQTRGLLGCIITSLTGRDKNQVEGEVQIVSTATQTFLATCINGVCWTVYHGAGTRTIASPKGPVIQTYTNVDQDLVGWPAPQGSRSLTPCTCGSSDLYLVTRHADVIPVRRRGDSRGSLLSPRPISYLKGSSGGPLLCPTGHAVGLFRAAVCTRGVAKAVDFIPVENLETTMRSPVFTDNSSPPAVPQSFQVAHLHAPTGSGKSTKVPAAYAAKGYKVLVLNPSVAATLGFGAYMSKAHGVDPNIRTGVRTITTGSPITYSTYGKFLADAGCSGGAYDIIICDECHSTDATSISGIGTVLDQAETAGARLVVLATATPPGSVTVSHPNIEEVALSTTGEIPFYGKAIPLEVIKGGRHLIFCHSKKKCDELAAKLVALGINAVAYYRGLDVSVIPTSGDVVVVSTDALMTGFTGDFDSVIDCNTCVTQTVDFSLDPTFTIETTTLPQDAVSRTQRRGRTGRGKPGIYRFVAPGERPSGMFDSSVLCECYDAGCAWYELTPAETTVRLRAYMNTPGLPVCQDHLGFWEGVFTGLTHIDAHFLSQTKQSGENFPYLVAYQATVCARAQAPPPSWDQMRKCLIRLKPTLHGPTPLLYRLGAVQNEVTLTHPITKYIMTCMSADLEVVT
From the text: NS3-NS4 inhibition activity can be determined using known assay methods. For example, NS3/NS4 complexes may be formed and inhibitory concentrations of test compounds determined as described in U.S. Patent Application Publication Number 2007/0054842 paragraph numbers 1497-1509, which is incorporated herein by reference in its entirety. Similarly, hepatitis C replicon EC50 may be determined using known assay methods such as described in U.S. Patent Application Publication Number 2007/0054842 paragraph numbers 1510-1515, which is incorporated herein by reference in its entirety. Assays may be conducted at ambient temperature (23° C.) in assay buffer containing 50 mM Tris-HCl, pH 7.5, 15% glycerol, 0.6 mM Lauryldimethylamine Oxide (LDAO), 25 μM NS4A peptide, and 10 mM Dithiothreitol (DTT).

[3] = hepatitis C replicon, read-out: EC50

| SMILES | EC50 [1, 3] [nM] | IC50 [2] [nM] | EC50 [1] [nM] |
| --- | --- | --- | --- |
| CC(C)(C)OC(=O)N[C@H]1CCCCC/C=C\[C@@H]2C[C@@]2(C(=O)NS(=O)(=O)C2(C)CC2)NC(=O)[C@@H]2C[C@@H](Oc3nc(-c4ccccc4)cc4c3CCCC4)CN2C1=O [Compound 404] | > 100 | < 10 | – |
| CC(C)c1ccc(Cc2csc(-c3cccc4c3nc(O[C@@H]3C[C@H]5C(=O)N[C@]6(C(=O)NS(=O)(=O)N(C)C)C[C@H]6/C=C\CCCCC[C@H](NC(=O)OC(C)(C)C)C(=O)N5C3)n4C(C)C)n2)cc1 [Compound 148] | 10 to 100 | < 10 | – |
| CC(C)n1c(O[C@@H]2C[C@H]3C(=O)N[C@]4(C(=O)NS(=O)(=O)N(C)C)C[C@H]4/C=C\CCCCC[C@H](NC(=O)OC(C)(C)C)C(=O)N3C2)nc2c(-c3cnccn3)cccc21 [Compound 159] | < 10 | < 10 | – |
| CC(C)n1c(O[C@@H]2C[C@H]3C(=O)N[C@]4(C(=O)NS(=O)(=O)N(C)C)C[C@H]4/C=C\CCCCC[C@H](NC(=O)OC(C)(C)C)C(=O)N3C2)nc2c(-c3cncc(N4CCCC4)n3)cccc21 [Compound 162] | < 10 | < 10 | – |
| COc1ccccc1-c1csc(-c2cccc3c2nc(O[C@@H]2C[C@H]4C(=O)N[C@]5(C(=O)NS(=O)(=O)C6(C)CC6)C[C@H]5/C=C\CCCCC[C@H](NC(=O)OC(C)(C)C)C(=O)N4C2)n3C(C)C)n1 [Compound 102] | < 10 | < 10 | – |
| CC(C)n1c(O[C@@H]2C[C@H]3C(=O)N[C@]4(C(=O)NS(=O)(=O)C5(C)CC5)C[C@H]4/C=C\CCCCC[C@H](NC(=O)OC4CCCC4)C(=O)N3C2)nc2c(-c3nc(Cc4ccccc4)cs3)cccc21 [Compound 165] | < 10 | < 10 | – |
| CC(C)c1csc(-c2cc(O[C@@H]3C[C@H]4C(=O)N[C@]5(C(=O)NS(=O)(=O)C6(C)CC6)C[C@H]5/C=C\CCCCC[C@H](N)C(=O)N4C3)ccn2)n1 [Compound 602] | > 100 | < 10 | – |
| CC(C)c1csc(-c2nc3c(c(O[C@@H]4C[C@H]5C(=O)N[C@]6(C(=O)NS(=O)(=O)C7(C)CC7)C[C@H]6/C=C\CCCCC[C@H](NC(=O)OC(C)(C)C)C(=O)N5C4)n2)CCCC3)n1 [Compound 303] | – | 10 to 100 | 10 to 100 |
| CC(C)(C)OC(=O)N[C@H]1CCCCC/C=C\[C@@H]2C[C@@]2(C(=O)NS(=O)(=O)C2(C)CC2)NC(=O)[C@@H]2C[C@@H](Oc3nc4c(-c5nc(C6CCCCC6)cs5)cccc4nc3C(F)(F)F)CN2C1=O [Compound 702] | < 10 | < 10 | – |
| CC(C)n1c(O[C@@H]2C[C@H]3C(=O)N[C@]4(C(=O)NS(=O)(=O)N(C)C)C[C@H]4/C=C\CCCCC[C@H](N)C(=O)N3C2)nc2c(-c3csc(N4CCCCC4)n3)cccc21 [Compound 169] | > 100 | < 10 | – |
| CC(C)(C)OC(=O)N[C@H]1CCCCC/C=C\[C@@H]2C[C@@]2(C(=O)NS(=O)(=O)C2(C)CC2)NC(=O)[C@@H]2C[C@@H](Oc3nc4cccc(-c5nc(-c6ccccc6)cs5)c4s3)CN2C1=O [Compound 201] | < 10 | < 10 | – |
| CC(C)c1csc(-c2cc3c(c(O[C@@H]4C[C@H]5C(=O)N[C@]6(C(=O)NS(=O)(=O)C7(C)CC7)C[C@H]6/C=C\CCCCC[C@H](NC(=O)OC(C)(C)C)C(=O)N5C4)n2)CCCC3)n1 [Compound 405] | > 100 | < 10 | – |
| CC(C)n1c(O[C@@H]2C[C@H]3C(=O)N[C@]4(C(=O)NS(=O)(=O)C5(C)CC5)C[C@H]4/C=C\CCCCC[C@H](NC(=O)OC(C)(C)C)C(=O)N3C2)nc2c(-c3nc(-c4ccc(C(C)(C)C)cc4)cs3)cccc21 [Compound 113] | 10 to 100 | < 10 | – |
| CC(C)c1csc(-c2cc(O[C@@H]3C[C@H]4C(=O)N[C@]5(C(=O)NS(=O)(=O)C6(C)CC6)C[C@H]5/C=C\CCCCC[C@H](NC(=O)OC(C)(C)C)C(=O)N4C3)ccn2)n1 [Compound 601] | < 10 | < 10 | – |
| CC(C)n1c(O[C@@H]2C[C@H]3C(=O)N[C@]4(C(=O)NS(=O)(=O)N(C)C)C[C@H]4/C=C\CCCCC[C@H](NC(=O)OC(C)(C)C)C(=O)N3C2)nc2c(-c3nc(-c4ccc(Cl)c(Cl)c4)cs3)cccc21 [Compound 138] | > 100 | < 10 | – |
| CC(C)n1c(O[C@@H]2C[C@H]3C(=O)N[C@]4(C(=O)NS(=O)(=O)C5(C)CC5)C[C@H]4/C=C\CCCCC[C@H](NC(=O)OC(C)(C)C)C(=O)N3C2)nc2c(-c3nc(C4CCCCC4)cs3)cccc21 [Compound 179] | – | < 10 | < 10 |
| CC(C)n1c(O[C@@H]2C[C@H]3C(=O)N[C@]4(C(=O)NS(=O)(=O)N(C)C)C[C@H]4/C=C\CCCCC[C@H](NC(=O)OC(C)(C)C)C(=O)N3C2)nc2c(-c3nc(Cc4cccc(Br)c4)cs3)cccc21 [Compound 153] | 10 to 100 | < 10 | – |
